From patent US5395836A, “8-tricycloalkyl xanthine derivatives” (Kyowa Hakko Kogyo Co., Ltd., priority 1993, dated 1995)

Key:
adenosine A1 receptor = biological target: T1, adenosine A1 receptor (Rattus norvegicus, UniProt P25099); experiment: Adenosine Receptor Antagonizing Activity (Adenosine A1 Receptor Binding Test); conditions: rat corpus striatum; 3H-CHA 1.1 nM; 25° C., 90 min; Cheng-Prusoff
T1 construct: from tissue; host or cells: rat corpus striatum, washed membrane suspension
T1 sequence (P25099 1-326): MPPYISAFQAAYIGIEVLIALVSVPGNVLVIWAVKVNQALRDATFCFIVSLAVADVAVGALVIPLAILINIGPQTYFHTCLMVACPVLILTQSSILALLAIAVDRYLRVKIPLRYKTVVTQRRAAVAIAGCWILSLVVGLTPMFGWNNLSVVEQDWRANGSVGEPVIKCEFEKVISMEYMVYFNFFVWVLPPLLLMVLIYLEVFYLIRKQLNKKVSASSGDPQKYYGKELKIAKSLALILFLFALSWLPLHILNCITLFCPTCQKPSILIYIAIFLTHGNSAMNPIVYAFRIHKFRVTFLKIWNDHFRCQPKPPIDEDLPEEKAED
Method: The test was conducted according to the method of Bruns et al. [Proc. Natl. Acad. Sci. U.S.A., 77., 5547 (1980)] with slight modification.
Corpus striatum of a rat was suspended in ice-cooled 50 mM Tris hydroxymethyl aminomethane hydrochloride (Tris HCl) buffer (pH 7.7) by using Polytron homogenizer (manufactured by Kinematicas Co.). The suspension was centrifuged (50,000×g, 10 minutes), and the precipitate was suspended again in the same amount of 50 mM Tris HCl buffer. The suspension was centrifuged under the same conditions, and the final precipitate was suspended once again in 50 mM Tris HCl buffer to give a tissue concentration of 100 mg (wet weight)/ml. The tissue suspension was allowed to stand in the presence of 0.02 unit/mg tissue of adenosine deaminase (manufacture by Sigma Co.) at 37° C. for 30 minutes. The tissue suspension was centrifuged (50,000×g, 10 minutes) and to the obtained precipitates was added 50 mM Tris HCl buffer to give a tissue concentration of 10 mg (wet weight)/ml.
To 1 ml of the tissue suspension thus prepared, were added 50 μl of cyclohexyladenosine labeled with tritium (^3 H-CHA: 27 Ci/mmol, manufactured by New England Nuclear) (final concentration: 1.1 nM), and 50 μl of a test compound. The resulting mixture was allowed to stand at 25° C. for 90 minutes and then rapidly filtered by suction through a glass fiber filter (GF/C, manufactured by Whatman Co.). The filter was immediately washed three times with 5 ml each of ice-cooled 50 mM Tris HCl buffer, and transferred to a vial, and scintillator (EX-H by Wako Pure Chemical Industries, Ltd.) was added thereto. The radioactivity on the filter was determined with a liquid scintillation counter (manufactured by Packard Instrument Co.).
The inhibition rate (Ki value) of the test compound against the binding of A1 receptors (^3 H-CHA binding) was calculated by the equation of Cheng-Prusoff. [formula]

[1] = Activity on (R)-PIA-Induced Amnesia (step-through passive avoidance); type: in vivo, mouse (ddY-strain); conditions: oral, amnesia treatment +, n = 15, amnesia control 51.5 ± 17.0
Method: Anti-dementia effect of Compound (I) was determined with (R)-PIA[(R)-N^6 -(2-phenylisopropyl)adenosine]-induced dementia model [Jpn. J. Pharmacol. 52 (Suppl. II), 107P (1990)] As the experimental animal, groups of ddY-strain mice (weighing 20-25 g), each group consisting of fifteen mice, were used. The test was performed with a step-through type passive avoidance apparatus (the bright and dark box).
The bright and dark box was made up of a bright compartment (15×9×11 cm) lighted by 4 W white fluorescent light and a dark compartment (15×14×18 cm). […] In order to give a foot shock, the electric current (0.3 mA: 2 sec) may be passed through the grid floor of the dark compartment.
The compound to be tested was suspended in 0.3% aqueous solution of carboxymethyl cellulose (CMC) and the suspension was orally administered 60 minutes before the acquisition trial (to the normal control group and the amnesia control group which is subjected to the following amnesia treatment, only 0.3% CMC was administered). 30 minutes after the administration of the test compound, 0.3 mg/kg of (R)-PIA was administered intraperitoneally as amnesia-inducing treatment [(R)-PIA was not administered to the normal control group].
The training for acquisition of learning (acquisition trial) was carried out. The rat was introduced into the bright compartment, and after 10 seconds, the guillotine door was opened. The rat in the bright compartment rapidly moved into the dark compartment. As soon as the whole body of the rat entered the dark compartment, the guillotine door was closed and an electric current of 0.3 mA was passed through the grid floor for 2 seconds (foot shock). Immediately after the foot shock, the rat was taken out of the dark compartment.
The test trial for observing the retention and recall of the memory (recall trial) was carried out as follows. Twenty-four hours after the acquisition trial, the rat was placed in the bright compartment and the guillotine door was opened. The length of time before the rat entered the dark compartment (latency) was measured. The latency was measured up to 600 seconds and the latency longer than 600 seconds was recorded as 600 seconds.
The test of significance was carried out by Steel-test.

Diuretic Effect = type: in vivo, rat (Wistar); conditions: for Increase in amount of K+ excreted Δ(%) / Increase in amount of Na+ excreted Δ(%) / Increase in amount of urine Δ(%): control 0
Method: The experiment was performed by using Wistar rats (male; 150 to 300 g). The rats were starved for 18 hours prior to the administration of a test compound (n=4 to 5). After test compounds were dissolved in 0.4% methanol, 1% dimethylsulfoxide and 0.01N sodium hydroxide/physiological saline, and administered intravenously, the physiological saline (25 ml/kg) was orally administered. Alternatively, test compounds dissolved in the physiological saline (25 ml/kg) was orally administered to the rats. Urine was collected from the rats during 4 hours after the oral administration, and urine volume was measured by a graduated measuring cylinder, and the electrolytes in the urine (Na^+ and K^+) were determined by flame photometer (775 A manufactured by Hitachi, Ltd.).

[2] = Renal-protecting Effect (Glycerol-Induced Renal Failure Model); type: in vivo, rat (Wistar); conditions: ip, 24 h after glycerol; for Amount of creatinine in blood serum: 4.35 ± 0.23 (compound 3); for Amount of uria nitrogen in blood serum: 139.7 ± 10.2 (compound 3)
Method: A renal failure is a state where the renal function is lowered and the homeostasis of a body fluid can be no longer maintained. It is known that an acute renal failure characteristic of uriniferous tubule disorder is caused by subcutaneous or intramuscular injection of glycerol to rats [Can. J. Physiol.
Male Wistar rats were kept deprived of water for 18 hours, and served for the test. A test compound was intraperitoneally administered to the rats (dosage: 0.1 ml/100 g). After 30 minutes, the rats were anesthetized with ether and 50% glycerol was subcutaneously administered (dosage: 0.8 ml/100 g) to the rats, pinching the dorsal skin. Twenty four hours after the administration of glycerol, the rats were anesthetized with ether and 5 ml of blood was collected from the abdominal aorta. The collected blood was allowed to stand for 30 minutes or longer and then centrifuged at 3,000 rpm for 10 minutes, and the amounts of the serum creatinine and the serum urine-nitrogen (UN) were determined by auto analyzer (Olympus AU510) [creatinine test (Jaffe method), UN test (enzyme method); both tests were used in Olympus AU500/550 exclusive reagent […].

CCCn1c(=O)c2[nH]c(C34C[C@H]5CC3C[C@@H](C4)[C@@H]5O)nc2n(CCC)c1=O (relative stereo) [Compound 3, 8-(Trans-9-hydroxy-3-tricyclo[3.3.1.0^3,7]nonyl)-1,3-dipropylxanthine]
Ki (adenosine A1 receptor): 0.23 nM | Recall trial average reaction latency ([1]; 0.08 mg/kg): 404.3 ± 43.5 s | Recall trial average reaction latency ([1]; 0.31 mg/kg): 438.8 ± 43.0 s | Recall trial average reaction latency ([1]; 1.25 mg/kg): 445.5 ± 49.5 s | Recall trial average reaction latency ([1]; 5.0 mg/kg): 430.5 ± 43.2 s | Amount of K+ excreted (Diuretic Effect; iv, 3 μg/kg, n = 5, 4 hours, control 1.47 ± 0.31): 1.24 ± 0.10 mEq/kg | Na+/K+ (Diuretic Effect; iv, 3 μg/kg, n = 5, 4 hours, control 1.52): 2.99 | Amount of Na+ excreted (Diuretic Effect; iv, 3 μg/kg, n = 5, 4 hours, control 2.23 ± 0.61): 3.71 mEq/kg | Amount of urine (Diuretic Effect; iv, 3 μg/kg, n = 5, urine over 4 hours, control 14.5 ± 1.8): 26.4 mL/kg | Increase in amount of K+ excreted Δ(%) (Diuretic Effect; po, 0.01 mg/kg, 4 hours): 11% | Increase in amount of Na+ excreted Δ(%) (Diuretic Effect; po, 0.01 mg/kg, 4 hours): 139% | Increase in amount of urine Δ(%) (Diuretic Effect; po, 0.01 mg/kg, 4 hours): 99% | Na+/K+ (Diuretic Effect; po, 0.01 mg/kg, 4 hours, control 1.00): 2.16 | Increase in amount of K+ excreted Δ(%) (Diuretic Effect; po, 0.1 mg/kg, 4 hours): -9% | Increase in amount of Na+ excreted Δ(%) (Diuretic Effect; po, 0.1 mg/kg, 4 hours): 148% | Increase in amount of urine Δ(%) (Diuretic Effect; po, 0.1 mg/kg, 4 hours): 105% | Na+/K+ (Diuretic Effect; po, 0.1 mg/kg, 4 hours, control 1.00): 2.72 | Amount of creatinine in blood serum ([2]; 0.01 mg/kg, control 3.90 ± 0.24 (compounds 6, 7)): 2.00 ± 0.21 mg/dL | Amount of uria nitrogen in blood serum ([2]; 0.01 mg/kg, control 124.9 ± 7.5 (compounds 6, 7)): 69.9 ± 8.4 mg/dL | Amount of creatinine in blood serum ([2]; 0.1 mg/kg, control 4.55 ± 0.24 (compound 5)): 2.32 ± 0.16 mg/dL | Amount of uria nitrogen in blood serum ([2]; 0.1 mg/kg, control 137.2 ± 5.0 (compound 5)): 64.4 ± 4.5 mg/dL
